# Data as given in patent US9556226B2, “Peptides with antifungal activity and methods of using the peptides” (THE BOARD OF TRUSTEES OF THE UNIVERSITY OF ARKANSAS, priority 2013, dated 2017).
# Like-named read-outs stand apart in the source and are kept apart here. Bridge positions count the residues as written; N and C are the ends. Square brackets hold non-standard residues; d marks the D form. Peptide text beside a SMILES is read from it. I, II: the chains in the order shown.
# Key:
# [1] = system: Candida albicans SC5314; type: cell-based; settings: for percent of C. albicans killed at 5 μM concentration: SC5314, 5
# Protocol: Killing assays. The fungicidal activity of the peptides toward Candida albicans was examined by microdilution plate assay as described previously (13). Briefly, from a fresh overnight cultured plate, a single colony was inoculated and diluted in 1 ml of 10 mM sodium phosphate buffer at pH 7.4. Once cell counts had been confirmed by using a hemocytometer, the cells diluted within the same buffer at 1.8×10^5 cells/mil. Cell suspensions of 20 μl were mixed with 20 μl of peptide, which were dissolved in 10 mM sodium phosphate buffer at pH 7.4, and then incubated for 2 hours at 37° C. with shaking at speeds of 550 rpm. The reactions were stopped by the addition of 360 μl yeast nitrogen base (YNB) and then 40 μl of cell suspension was spread onto plates and incubated for 24 hours at 37° C. Sabouraud dextrose agar plates were used for C. albicans killing assay. The number of colony-forming units (CFUs) was counted and each assay was repeated in triplicate. Loss of viability was calculated as [1-(colonies from suspension with peptide/colonies from suspension with no peptide)]×100. For the respiratory activity experiments, Candida albicans was grown in the presence of sodium azide or antimycin A (Sigma Aldrich) before the killing assay was performed.
# [2] = system: CD1 mice; assay: Immunogenicity in mice, serum dot blot for antibodies against the peptide; type: in vivo
# Protocol: Small peptides have the potential to induce an immune response when used for therapeutic purposes. To examine this possibility, mice were injected once per month for four months with 10 mg/kg of the KM12 peptide either by intravenous, intramuscular, or intraperitoneal route. After the fifth month, the mice were euthanized and the serum collected and tested by dot blot analysis for antibodies directed against the KM12 peptide. For each route of injection, five CD1 mice were used. […] It is plausible that the smaller size of those peptides may not elicit an immune response, yet be effect as antifungals. Such studies are currently underway on KM23 and KM29.
# (§1) Animal Studies: For the animal studies, CD-1 mice of 8-25 grams were injected with the antifungal peptides dissolved in either phosphate-buffered saline or 5% glucose. Peptide concentrations used for the injection of mice were chosen using a standard up-down protocol starting at 8 mg/kg. Peptides were injected into mice intravenously, intramuscularly, or intraperitoneally as indicated. The mice were closely monitored lbr signs of distress after injection. After two hours of continuous monitoring, the mice were evaluated daily for two weeks and necropsies performed after two weeks. For evaluating the immunogenicity of the peptides, mice were injected with peptides at a concentration of 10 mg/kg in 5% glucose. The routes of injection were intravenous, intramuscular, or intraperitoneal. Five mice were injected with the peptide per route of injection. The mice were injected with the same dose of peptide once per month for four months. The mice were monitored for signs of distress after each injection. At the end of the fifth month, the mice were euthanized by an overdose of anesthesia and the serum was collected from each mouse individually as assay for activity against the peptide using dot blots.
# [3] = protein binding evaluation using bovine calf serum (disulfide bond stability); type: in vitro ADME
# Source text: To alleviate that difficulty, two additional peptides were synthesized, KM23 and KM29. The KM23 peptide was identical in sequence to KM12 except the cysteine residues were removed resulting in a peptide with the sequence Y -K-R-K-F-F-K-R-K-Y (SEQ ID NO: 3). Since there were two phenylalanines at the center of this symmetrical peptide another peptide, designated KM29 was synthesized to yield the symmetric peptide Y-K-R-K-F-K-R-K-Y (SEQ ID NO: 4) with one phenylalanine at the center.
# [4] = system: CD1 mice; assay: Acute toxicity testing in CD1 mice (up-down protocol); type: in vivo; settings: for signs observed on tested animals: IV
# Protocol: To evaluate acute toxicity in animals, CD1 outbred mice were injected via tail vein with either KM12 or KM14 using a standard up-down concentration protocol and observed for any symptoms consistent with the toxicity of the peptides (Table 4). Mice were initially injected with KM12 or KM14 at a concentration of 8 mg/kg. […] Thus the KM12 peptide was deemed safe for animals at concentrations up to 10 mg/kg and the use of 5% glucose versus phosphate-buffered saline was deemed safer for administration to the animals. We will continue to evaluate acute toxicity with other KM peptides (i.e. KM23 and KM29) that show excellent promise as antifungal compounds. In addition, we plan to evaluate these peptides for treatment of superficial mucosal infections with Candida species.
# as §1
# [5] = system: Candida tropicalis ATCC750; assay: Minimum inhibitory concentration (MIC) assay with resazurin; type: cell-based; settings: 0.125X RPMI medium, range of three independent experiments
# Source text: (§2) Minimum Inhibitory Concentration Assays: MIC assays were used to evaluate the minimum concentration of each antifungal peptide that would lead to 100% inhibition of growth. In the MIC assay, the colorimetric indicator, resazurin, is used to evaluate cell growth. Resazurin turns pink after reduction by living cells, indicating active cell growth. The unchanged blue color indicated no active cell growth. Colorimetric MIC end-points are interpreted as the lowest drug concentration that remained blue. The lowest dilution that changed from blue to slightly purple is indicative of significant cell growth inhibition; whereas a pink color indicates no growth inhibition. Each individual Candida species was assayed a minimum of three times and the results represent the range of MIC values obtained. The MIC assay was performed as described by the National Committee for Clinical Laboratory Standards M27-A, except we include resazurin as an indicator dye rather than visual inspection and the […] tissue culture medium was used at 0.125× concentration for our assays.
# [6] = system: Candida lucitaniae ATCC200951; assay: as above; type: cell-based; settings: 0.125X RPMI medium, range of three independent experiments
# Source text: as §2
# [7] = system: Candida albicans SC5314; assay: as above; type: cell-based; settings: 0.125X RPMI medium, range of three independent experiments
# Source text: as §2
# [8] = system: Candida kefyr ATCC4135; assay: as above; type: cell-based; settings: 0.125X RPMI medium, range of three independent experiments
# Source text: as §2
# [9] = system: Candida krusel ATCC6258; assay: as above; type: cell-based; settings: 0.125X RPMI medium, range of three independent experiments
# Source text: as §2
# [10] = system: Candida glabrata ATCC90030; assay: as above; type: cell-based; settings: 0.125X RPMI medium, range of three independent experiments
# Source text: as §2
smiles,measurement,setting,value
"CC(=O)N[C@@H](Cc1ccccc1)C(=O)N[C@@H](CCCCN)C(=O)N[C@@H](CSSC[C@H](NC(=O)[C@H](CCCCN)NC(=O)[C@H](Cc1ccccc1)NC(C)=O)C(=O)N[C@@H](CCCNC(=N)N)C(=O)N[C@@H](CCCCN)C(=O)N[C@@H](Cc1ccc(O)cc1)C(N)=O)C(=O)N[C@@H](CCCNC(=N)N)C(=O)N[C@@H](CCCCN)C(=O)N[C@@H](Cc1ccc(O)cc1)C(N)=O [KM16, F-K-C-R-K-Y] (I: Ac-FKCRKY-NH2 / II: Ac-FKCRKY-NH2; disulfide I:3-II:3)",antifungal activity relative to comparator peptides (in words),[1]; Candida albicans SC5314,very promising antifungal activity compatible with that of KM12 and KM14
same,percent of C. albicans killed at 5 μM concentration,[1],> 90%
"CC(=O)N[C@@H](CS)C(=O)N[C@@H](Cc1ccccc1)C(=O)N[C@@H](CCCCN)C(=O)N[C@@H](CCCNC(=N)N)C(=O)N[C@@H](CCCCN)C(=O)N[C@@H](Cc1ccc(O)cc1)C(N)=O [KM11, C-F-K-R-K-Y] (Ac-CFKRKY-NH2)",antifungal activity relative to comparator peptides (in words),[1]; Candida albicans SC5314,did not alter its antifungal activity
same,Percent killing activity at 25 μM concentration,"[1]; SC5314, 25",95%
"CC(=O)N[C@@H](CSSC[C@H](NC(C)=O)C(=O)N[C@@H](Cc1ccccc1)C(=O)N[C@@H](CCCCN)C(=O)N[C@@H](CCCNC(=N)N)C(=O)N[C@@H](CCCCN)C(=O)N[C@@H](Cc1ccc(O)cc1)C(N)=O)C(=O)N[C@@H](Cc1ccccc1)C(=O)N[C@@H](CCCCN)C(=O)N[C@@H](CCCNC(=N)N)C(=O)N[C@@H](CCCCN)C(=O)N[C@@H](Cc1ccc(O)cc1)C(N)=O [KM12, Y-K-R-K-F-C-----C-F-K-R-K-Y]",mice displaying a weak immune response (antibodies against the peptide),"[2]; 10 mg/kg once per month for four months, intramuscular injection",1/5
same,mice displaying an immune response (antibodies against the peptide),"[2]; 10 mg/kg once per month for four months, intraperitoneal injection",0/5
same,mice showing a moderate immune response (antibodies against the peptide),"[2]; 10 mg/kg once per month for four months, intravenous injection",1/5
same,"immunogenicity (overall, in words)","[2]; CD1 mice, 10 mg/kg monthly, IV, IM or IP",weakly immunogenic
same,stability of the disulfide bond in bovine calf serum,[3],readily reduced
same,signs observed on tested animals,"[4]; 8 mg/kg, in PBS, CD1 mice",no toxicity and None
same,signs observed on tested animals,"[4]; 10 mg/kg, IM, IP, in 5% glucose, CD1 mice (n = 15)",no major toxicity and None
same,signs observed on tested animals,"[4]; 10 mg/kg, in PBS, CD1 mice (n = 5)",None
same,signs observed on tested animals,"[4]; 16 mg/kg, in 5% glucose, CD1 mice (n = 2)","Convulsion, no death"
same,dosage deemed safe / well-tolerated in mice,"[4]; intravenous, intramuscular or intraperitoneal route",up to 10 mg/kg
"CC(=O)N[C@@H](CCCCN)C(=O)N[C@@H](Cc1ccccc1)C(=O)N[C@@H](CCCNC(=N)N)C(=O)N[C@@H](Cc1ccc(O)cc1)C(=O)N[C@@H](CCCCN)C(N)=O [KM10, KFRYK] (Ac-KFRYK-NH2)",Percent killing activity at 25 μM concentration,"[1]; SC5314, 25",55%
"CC(=O)N[C@@H](Cc1ccccc1)C(=O)N[C@@H](CCCCN)C(=O)N[C@@H](CCCNC(=N)N)C(=O)N[C@@H](CCCCN)C(=O)N[C@@H](Cc1ccccc1)C(N)=O [KM9, FKRKF] (Ac-FKRKF-NH2)",Percent killing activity at 25 μM concentration,"[1]; SC5314, 25",70%
"CC(=O)N[C@@H](Cc1ccc(O)cc1)C(=O)N[C@@H](CCCCN)C(=O)N[C@@H](CCCNC(=N)N)C(=O)N[C@@H](CCCCN)C(=O)N[C@@H](Cc1ccccc1)C(=O)N[C@@H](Cc1ccccc1)C(=O)N[C@@H](CCCCN)C(=O)N[C@@H](CCCNC(=N)N)C(=O)N[C@@H](CCCCN)C(=O)N[C@@H](Cc1ccc(O)cc1)C(N)=O [KM23, Y-K-R-K-F-F-K-R-K-Y] (Ac-YKRKFFKRKY-NH2)",MIC,[5],2.4 to 4.7 µg/mL
same,MIC,[6],2.4 µg/mL
same,MIC,[7],4.7 µg/mL
same,MIC,[8],1.2 to 4.7 µg/mL
same,MIC,[9],4.7 µg/mL
same,MIC,[10],75.4 µg/mL
same,LD50 in killing assays,[1]; Candida albicans SC5314,62.5 nM
"CC(=O)N[C@@H](CSSC[C@H](NC(C)=O)C(=O)N[C@@H](Cc1c[nH]c2ccccc12)C(=O)N[C@@H](CCCCN)C(=O)N[C@@H](CCCNC(=N)N)C(=O)N[C@@H](CCCCN)C(=O)N[C@@H](Cc1c[nH]c2ccccc12)C(N)=O)C(=O)N[C@@H](Cc1c[nH]c2ccccc12)C(=O)N[C@@H](CCCCN)C(=O)N[C@@H](CCCNC(=N)N)C(=O)N[C@@H](CCCCN)C(=O)N[C@@H](Cc1c[nH]c2ccccc12)C(N)=O [KM14, W-K-R-K-W-C-----C-W-K-R-K-W]",signs observed on tested animals,"[4]; 8 mg/kg, in PBS, CD1 mice",immediate death
"CC(=O)N[C@@H](Cc1ccc(O)cc1)C(=O)N[C@@H](CCCCN)C(=O)N[C@@H](CCCNC(=N)N)C(=O)N[C@@H](CCCCN)C(=O)N[C@@H](Cc1ccccc1)C(=O)N[C@@H](CCCCN)C(=O)N[C@@H](CCCNC(=N)N)C(=O)N[C@@H](CCCCN)C(=O)N[C@@H](Cc1ccc(O)cc1)C(N)=O [KM29, Y-K-R-K-F-K-R-K-Y] (Ac-YKRKFKRKY-NH2)",MIC,[5],2.1 to 4.2 µg/mL
same,MIC,[6],2.1 to 4.2 µg/mL
same,MIC,[7],4.2 to 8.4 µg/mL
same,MIC,[8],2.1 to 4.3 µg/mL
same,MIC,[9],4.2 µg/mL
same,MIC,[10],67.5 µg/mL
same,LD50 in killing assays,[1]; Candida albicans SC5314,62.5 nM
"CC(=O)N[C@@H](Cc1ccccc1)C(=O)N[C@@H](CCCCN)C(=O)N[C@@H](CCCNC(=N)N)C(=O)N[C@@H](CCCCN)C(=O)N[C@@H](Cc1ccc(O)cc1)C(N)=O [KM5, F-K-R-K-Y] (Ac-FKRKY-NH2)",Percent killing activity at 25 μM concentration,"[1]; 25 μM peptide, Candida albicans SC5314",85%
same,LD50 (dose of peptide required to achieve 50% killing),"[1]; Candida albicans SC5314, 2 hours at 37° C., calculated using a linear regression equation",5 µM
"CC(=O)N[C@H]1CSSC[C@@H](C(N)=O)NC(=O)[C@H](Cc2ccc(O)cc2)NC(=O)[C@H](CCCCN)NC(=O)[C@H](CCCNC(=N)N)NC(=O)[C@H](CCCCN)NC(=O)[C@H](Cc2ccccc2)NC1=O [KM17, C-F-K-R-K-Y-C] (Ac-CFKRKYC-NH2; disulfide 1-7)",antifungal activity relative to comparator peptides (in words),[1]; Candida albicans SC5314,very promising antifungal activity compatible with that of KM12 and KM14
same,percent of C. albicans killed at 5 μM concentration,[1],> 90%
"CC(=O)N[C@H](Cc1ccccc1)C(=O)N[C@H](CCCCN)C(=O)N[C@H](CCCNC(=N)N)C(=O)N[C@H](CCCCN)C(=O)N[C@H](Cc1ccc(O)cc1)C(N)=O [KM6, dF-dK-dR-dK-dY] (Ac-[dF][dK][dR][dK][dY]-NH2)",antifungal activity relative to comparator peptides (in words),[1]; Candida albicans SC5314,equivalent antifungal activity
"CC(=O)N[C@@H](Cc1ccccc1)C(=O)N[C@@H](CCCCN)C(=O)N1CCC[C@H]1C(=O)N[C@@H](CCCCN)C(=O)N[C@@H](Cc1ccc(O)cc1)C(N)=O [KM7, FKPKY] (Ac-FKPKY-NH2)",Percent killing activity at 25 μM concentration,"[1]; SC5314, 25",3%
"CC(=O)N[C@@H](Cc1ccccc1)C(=O)N[C@@H](CCCCN)C(=O)N[C@@H](CO)C(=O)N[C@@H](CCCCN)C(=O)N[C@@H](Cc1ccc(O)cc1)C(N)=O [KM8, FKSKY] (Ac-FKSKY-NH2)",Percent killing activity at 25 μM concentration,"[1]; SC5314, 25",0%
